Assay results: paper PMC12501029, “Discovery of a CNS active GSK3 degrader using orthogonally reactive linker screening” (Nature Communications, 2025)

Columns and labels:
[1] = Plasma protein binding, equilibrium dialysis, human; format: in vitro ADME; details: 5 h dialysis, read-out: Plasma Protein Binding (Fu) Hu
Method: A 96-well equilibrium dialysis apparatus was used to determine the free fraction in plasma for each compound (HT Dialysis LLC, Gales Ferry, CT). Membranes (12–14 kDA cut-off) were conditioned in deionised water for 60 min, followed by conditioning in 80:20 deionised water: ethanol for 20 min, and then rinsed in isotonic buffer before use. Female CD1 mouse, Male rat Han Wistar and human plasma was removed from the freezer and allowed to thaw on the day of experiment. Thawed plasma was then centrifuged (Allegra X12-R, Beckman Coulter, USA), spiked with test compound (final concentration 10 μg/mL), and 150 μL aliquots (n = 6 replicate determinations) loaded into the 96-well equilibrium dialysis plate. Dialysis vs isotonic buffer (150 μL) was carried out for 5 h in a temperature-controlled incubator at ca. 37 °C (Barworld Scientific Ltd, UK) using an orbital microplate shaker at 100 revolutions/minute (Barworld Scientific Ltd, UK). At the end of the incubation period, 50 μL aliquots of plasma or buffer were transferred to a 96-well 2.1 mL Waters ^TM plate and the composition in each well balanced with control fluid (50 μL), such that the volume of buffer to plasma is the same. […] All samples were analysed by UPLC-MS/MS. The unbound fraction was determined as the ratio of the peak area in buffer to that in plasma.

[2] = Plasma protein binding, equilibrium dialysis, mouse; format: in vitro ADME; details: female, CD1, mouse
Method: A 96-well equilibrium dialysis apparatus was used to determine the free fraction in plasma for each compound (HT Dialysis LLC, Gales Ferry, CT). Membranes (12–14 kDA cut-off) were conditioned in deionised water for 60 min, followed by conditioning in 80:20 deionised water: ethanol for 20 min, and then rinsed in isotonic buffer before use. Female CD1 mouse, Male rat Han Wistar and human plasma was removed from the freezer and allowed to thaw on the day of experiment. Thawed plasma was then centrifuged (Allegra X12-R, Beckman Coulter, USA), spiked with test compound (final concentration 10 μg/mL), and 150 μL aliquots (n = 6 replicate determinations) loaded into the 96-well equilibrium dialysis plate. Dialysis vs isotonic buffer (150 μL) was carried out for 5 h in a temperature-controlled incubator at ca. 37 °C (Barworld Scientific Ltd, UK) using an orbital microplate shaker at 100 revolutions/minute (Barworld Scientific Ltd, UK). At the end of the incubation period, 50 μL aliquots of plasma or buffer were transferred to a 96-well 2.1 mL Waters ^TM plate and the composition in each well balanced with control fluid (50 μL), such that the volume of buffer to plasma is the same. Sample extraction was performed by the addition of 200 μL of acetonitrile containing an appropriate internal standard. Samples were allowed to mix for 1 min and then centrifuged at 3000 rpm in 96-well blocks for 15 min (Allegra X12-R, Beckman Coulter, USA), after which 150 μL of supernatant was removed to 50 μL of water. All samples were analysed by UPLC-MS/MS. The unbound fraction was determined as the ratio of the peak area in buffer to that in plasma.

[3] = target: T1, GSK3α (Homo sapiens, UniProt P49840); experiment: Immunoblot degradation of endogenous GSK3α in HEK293 cells; format: cell-based; details: 10 nM, 2 h
T1 construct: Endogenous GSK3 paralog degradation with compounds 24 and 26 and negative controls 27 and 28 in HEK293 cells; host or cells: HEK293
T1 sequence (P49840 whole entry): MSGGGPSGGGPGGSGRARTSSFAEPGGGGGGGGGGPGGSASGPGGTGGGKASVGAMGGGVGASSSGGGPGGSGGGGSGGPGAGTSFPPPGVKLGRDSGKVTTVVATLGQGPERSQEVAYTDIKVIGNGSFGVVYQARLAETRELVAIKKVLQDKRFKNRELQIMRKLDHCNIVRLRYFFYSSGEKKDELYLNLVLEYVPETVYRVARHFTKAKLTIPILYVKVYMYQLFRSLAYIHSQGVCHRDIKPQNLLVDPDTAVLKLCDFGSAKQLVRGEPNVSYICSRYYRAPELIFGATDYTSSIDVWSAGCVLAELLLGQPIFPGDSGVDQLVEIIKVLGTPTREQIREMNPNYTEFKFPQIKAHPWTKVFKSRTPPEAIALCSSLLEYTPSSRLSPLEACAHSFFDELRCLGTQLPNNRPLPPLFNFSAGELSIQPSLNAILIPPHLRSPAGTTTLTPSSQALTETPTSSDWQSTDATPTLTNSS
Method: HEK293, HAP1, HAP1 CRBN KO and SH-SY5Y cells were plated in either 6 cm plates or 6-well plates at varying densities (0.5–0.7 × 10^6 cells per plate or wells), and MEF cells were plated in 10 cm plates (1–1.2 × 10^6 cells per plate) depending on experimental set up in respective culturing condition as described above. Stock solutions of compounds were prepared as 10 mM in DMSO (Sigma–Aldrich). Working dilutions were made up fresh in DMSO and culturing media or differentiation media was refreshed prior to any compound treatments. For mode of action studies, cells were pre-treated with inhibitors for 2 h: 1 µM MG132 (Merck, 474790-5 mg), 1 µM MLN4924 (Merck, 5054770001) or 1 µM GSK3 inhibitor (compound 29), before treating with PROTACs for 2, 4 or 24 h as indicated in figure legends. Cells were washed twice with ice-cold PBS (Gibco), harvested in PBS and pelleted, cells were resuspended in RIPA buffer supplemented with complete EDTA-free protease inhibitor cocktail (Roche,11873580001, 1/10 mL) and phosSTOP (Roche, 04906845001, 1 tablet/10 mL) for 20 min lysis on ice then cleared via centrifugation at 16,000 × g, 4 °C for 20 min. […] Following clearance of lysates, protein concentrations were determined by the BCA assay (Fisher Scientific, 23225) or Bradford assay (Bio-rad). […]

[4] = 10 μg/mL, 5 h dialysis, read-out: Plasma Protein Binding (Fu) Mu

Cn1nc(N2CCC(=O)NC2=O)c2ccc(CN3CCN(Cc4ccc(-c5cn(-c6ccc(-c7cn8nccc(C(=O)Nc9cnccc9N9CCOCC9)c8n7)cc6)nn5)nc4)CC3)cc21 [compound 24]
fraction unbound at 5 h, 10 μg/mL [1]: 0.0072
fraction unbound at 5 h, 10 μg/mL [2, 4]: 0.0052
fraction unbound at 5 h, 10 μg/mL ([2]; equilibrium dialysis, read-out: unbound fraction in mouse plasma): 0.005
endogenous GSK3α degradation [3]: almost complete

Cn1nc(N2CCC(=O)NC2=O)c2ccc(CN3CCN(CCCc4cn(-c5ccc(-c6cn7nccc(C(=O)Nc8cnccc8N8CCOCC8)c7n6)cc5)nn4)CC3)cc21 [compound 26]
fraction unbound at 5 h, 10 μg/mL [1]: 0.05
fraction unbound at 5 h, 10 μg/mL [2, 4]: 0.021
endogenous GSK3α degradation [3]: almost complete
